# Experimental data from patent US12441762B2, “Hepatitis c virus NS3/4A protease inhibitors” (priority 2019, dated 2025).
# Where two headings read alike, the source gives them in different places.
# Legend:
# [1] = target: T1, wild-type HCV NS3/4A protease (GT1a) (Hepatitis C virus genotype 1a, UniProt P27958, C1185S); test: biochemical; assay type: biochemical
# T1 construct: His-tag (cleaved yes); made in house; host or cells: Escherichia coli BL21(DE3), PET28a vector
# How it was run: (§1)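 Inhibitors pre-incubated 1 h at room temperature with 2 nM NS3/4A protease (GT1a C159S or D168A) in 50 mM Tris, 5% glycerol, 10 mM DTT, 0.6 mM LDAO, 4% DMSO, pH 7.5. Km from global Michaelis-Menten fit of inner-filter-corrected initial velocities; three independent data sets per inhibitor and construct.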
# [2] = target: T2, HCV NS3/4A protease D168A variant (Hepatitis C virus genotype 1a, UniProt P27958, C1185S/D1194A); test: biochemical; assay type: biochemical
# T2 construct: His-tag (cleaved yes); made in house; host or cells: Escherichia coli BL21(DE3), PET28a vector
# How it was run: as §1
# [3] = rcm bond, 70.0 °C, 6.0 h
# [4] = system: HCV NS3/4A protease D168A variant; test: biochemical; assay type: biochemical, Hepatitis C virus; conditions: Table S1, value in parentheses
# How it was run: as §1
# [5] = rcm bond, 15-membered ring, Zhan 1B, 1,2-DCE, 70.0 °C
# T1 sequence (P27958 1027-1208 C1185S): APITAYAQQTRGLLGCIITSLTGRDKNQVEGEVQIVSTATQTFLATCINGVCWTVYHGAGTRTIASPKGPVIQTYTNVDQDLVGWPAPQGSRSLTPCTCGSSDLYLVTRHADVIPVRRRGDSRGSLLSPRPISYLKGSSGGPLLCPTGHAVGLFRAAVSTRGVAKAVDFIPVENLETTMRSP
# T2 sequence (P27958 1027-1208 C1185S/D1194A): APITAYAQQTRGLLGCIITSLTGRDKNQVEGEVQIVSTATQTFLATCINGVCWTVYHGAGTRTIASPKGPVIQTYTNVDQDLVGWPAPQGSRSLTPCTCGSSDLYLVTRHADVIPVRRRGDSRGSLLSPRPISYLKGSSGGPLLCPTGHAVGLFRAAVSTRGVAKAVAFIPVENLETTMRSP
compound,measurement,setting,value
"COc1ccc2nc(C(F)(F)F)c(O[C@@H]3C[C@H]4C(=O)N[C@]5(C(=O)NS(=O)(=O)C6(C)CC6)C[C@H]5/C=C\CCCCC[C@H](NC(=O)OC(C)(C)C)C(=O)N4C3)nc2c1 [CH-24, tert-Butyl ((2R,6S,13aS,14aR,16aS, Z)-2-((7-methoxy-3-(trifluoromethyl)quinoxalin-2-yl)oxy)-14a-(((1-methylcyclopropyl)sulfonyl)carbamoyl)-5,16-dioxo-1,2,3,5,6,7,8,9,10,11,13a,14,14a,15,16,16a-hexadecahydrocyclopropa[e]pyrrolo[1,2-a] [1,4]diazacyclopentadecin-6-yl) carbamate]",Ki,[1],5.77 ± 1.78 nM
same,Ki,[2],118 ± 13 nM
same,"ring closure, yield of all isomers","[3]; from C=CCCCCC[C@H](NC(=O)OC(C)(C)C)C(=O)N1C[C@H](Oc2nc3cc(OC)ccc3nc2C(F)(F)F)C[C@H]1C(=O)N[C@]1(C(=O)NS(=O)(=O)C2(C)CC2)C[C@H]1C=C, Zhan 1B, 1,2-dichloroethane, 5.73 mM",73%
"COc1ccc2nc(C)c(O[C@@H]3C[C@H]4C(=O)N[C@]5(C(=O)NS(=O)(=O)C6(C)CC6)C[C@H]5/C=C\CCCCC[C@H](NC(=O)OC(C)(C)C)C(=O)N4C3)nc2c1 [JZ01-15, tert-Butyl ((2R,6S,13aS,14aR,16aS, Z)-2-((7-methoxy-3-methylquinoxalin-2-yl)oxy)-14a-(((1-methylcyclopropyl)sulfonyl)carbamoyl)-5,16-dioxo-1,2,3,5,6,7,8,9,10,11,13a,14,14a,15,16,16a-hexadecahydrocyclopropa[e]pyrrolo[1,2-a] [1,4]diazacyclopentadecin-6-yl) carbamate]",Ki,[1],3.6 ± 0.44 nM
same,Ki,[2],52 ± 2.4 nM
same,Fold Change of D168A Ki with respect to GT1a wild-type,[4],(14) fold
same,"ring closure, yield of all isomers","[3]; from C=CCCCCC[C@H](NC(=O)OC(C)(C)C)C(=O)N1C[C@H](Oc2nc3cc(OC)ccc3nc2C)C[C@H]1C(=O)N[C@]1(C(=O)NS(=O)(=O)C2(C)CC2)C[C@H]1C=C, Zhan 1B, 1,2-dichloroethane, 4.95 mM",70%
same,"ring closure, yield of all isomers","[3]; from C=CCCCCC[C@H](NC(=O)OC(C)(C)C)C(=O)N1C[C@H](Oc2nc3cc(OC)ccc3nc2C)C[C@H]1C(=O)N[C@]1(C(=O)NS(=O)(=O)C2(C)CC2)C[C@H]1C=C, Zhan 1b catalyst, 1,2-DCE, 4.95 mM",70%
"tert-Butyl ((2R,6S,13aS,14aR,16aS, Z)-2-((7-methoxy-3-(trifluoromethyl) quinoxalin-2-yl) oxy)-14a-(((1-methylcyclopropyl) sulfonyl) carbamoyl)-5,16-dioxo-1,2,3,5,6,7,8,9,10,11,13a,14,14a,15,16,16a-hexadecahydrocyclopropa[e]pyrrolo[1,2-a] [1,4] diazacyclopentadecin-6-yl) carbamate","ring closure, isolated yield",[5]; 5.73 mM,73%
"tert-Butyl ((2R,6S,13aS,14aR,16aS, Z)-2-((7-methoxy-3-methylquinoxalin-2-yl) oxy)-14a-(((1-methylcyclopropyl) sulfonyl) carbamoyl)-5,16-dioxo-1,2,3,5,6,7,8,9,10,11,13a,14,14a,15,16,16a-hexadecahydrocyclopropa[e]pyrrolo[1,2-a] [1,4] diazacyclopentadecin-6-yl) carbamate","ring closure, isolated yield",[5]; 4.95 mM,70%
